Columns and labels:
Format in all cases: cell-based, human
[1] = test system: ABCC1 expression in cancer cells (CK8/18+); experiment: Immunofluorescence assay of ABCC1 expression in patient-derived NSCLC cultures; details: 7 days
Description: (§1) Tissue samples were collected during surgery, and the NSCLC diagnosis, histological grade, stage, necrosis, and lymph node invasion status were determined by histopathological analysis. […] The surgical specimens were placed in a sterile tube containing antibiotic-antimycotic solution (Sigma-Aldrich Chemie GmbH, Taufkirchen, Germany) and immediately transported to the research laboratory for further processing.
(§2) Upon arrival, the tissue was manually chopped with a surgical blade in a Petri dish under sterile conditions. The samples were cut into 3–5 mm pieces and further dissociated using the Tumor Dissociation Kit (Miltenyi Biotec, Bergisch Gladbach, Germany). The Tumor Dissociation Kit was used to dissociate the cells from the tumor tissue according to the manufacturer’s instructions. The samples were incubated in a 37 °C orbital shaker (KS 4000 ic control, IKA, Königswinter, Germany) at 300 rpm for 90 min. After incubation, the dissociated tissue was placed in DMEM/Ham’s F12 (1:3 ratio) growth medium supplemented with 5% fetal bovine serum (Corning, NY, USA), antibiotic-antimycotic solution, 4 µg/mL hydrocortisone (Sigma-Aldrich Chemie GmbH, Taufkirchen, Germany), 1 µg/mL insulin (Sigma-Aldrich Chemie GmbH, Taufkirchen, Germany), 10 ng/mL epidermal growth factor (BioLegend, San Diego, CA, USA), and 24 µg/mL adenine (Sigma-Aldrich Chemie GmbH, Taufkirchen, Germany). The DMEM and Ham’s F12 growth media were purchased from Sigma-Aldrich Chemie GmbH (Taufkirchen, Germany).
(§3) The dissociated tissue was cultured in T-25 cell culture flasks until cell attachment was observed before the medium was replaced. If no cell attachment was achieved within 7 days, the sample was discarded. Successful patient-derived cultures were maintained at 37 °C in a humidified atmosphere with 5% CO2 and grown to confluence before undergoing further experiments. […] Partial trypsinization was performed by detaching the fibroblast-like cells with 1 mL of 0.05% trypsin for 1 min at 37 °C, followed by 2 min at room temperature (RT).
(§4) Vinorelbine and pemetrexed were purchased from Selleckchem (Houston, TX, USA). Carboplatin, cisplatin, docetaxel, etoposide, gemcitabine, gefitinib, and paclitaxel were purchased from Sigma-Aldrich Chemie GmbH (Taufkirchen, Germany). The cisplatin, carboplatin, and gemcitabine were dissolved in sterile water, while the etoposide, docetaxel, vinorelbine, paclitaxel, gefitinib, and pemetrexed were dissolved in DMSO and stored at −20 °C. Before treatment, all the stock solutions were freshly diluted in sterile water.
(§5) The primary cells were seeded in black, clear bottom 384-well cell culture microplates (Thermo Fisher Scientific, Waltham, MA, USA) in 50 µL of cell growth medium at a density of 1000 cells per well. The compounds were administered 72 h after seeding. The treatment lasted 7 days.
(§6) The immunofluorescence assay for the quantification of MDR markers was optimized to distinguish cancer cells from stromal cells using a cytokeratin 8/18 (CK8/18) antibody cocktail. The cells were fixed with 4% paraformaldehyde for 20 min at RT and washed three times with PBS using the Wellwash Versa microplate washer (Thermo Fisher Scientific, Waltham, MA, USA). The cells were then blocked with 2% bovine serum albumin (BSA) in PBS for 1 h at RT. […] Co-immunostaining with antibodies against MDR markers was performed to detect the presence of ABCB1, ABCC1, and ABCG2 in both the cancer and stromal cells. […] The secondary antibodies were incubated with the cells at RT for 2 h in the dark. […] Finally, the cells were washed three times with PBS and stored at 4 °C in the dark before imaging.

[2] = test system: ABCB1 expression in cancer cells (CK8/18+); experiment: Immunofluorescence assay of ABCB1 expression in patient-derived NSCLC cultures; details: 7 days
Description: as §1, §2, §3, §4, §5, §6

[3] = test system: ABCG2 expression in non-cancer cells (CK8/18-); experiment: Immunofluorescence assay of ABCG2 expression in patient-derived NSCLC cultures, non-cancer cells; details: 7 days
Description: as §1
Upon arrival, the tissue was manually chopped with a surgical blade in a Petri dish under sterile conditions. The samples were cut into 3–5 mm pieces and further dissociated using the Tumor Dissociation Kit (Miltenyi Biotec, Bergisch Gladbach, Germany). The Tumor Dissociation Kit was used to dissociate the cells from the tumor tissue according to the manufacturer’s instructions. The samples were incubated in a 37 °C orbital shaker (KS 4000 ic control, IKA, Königswinter, Germany) at 300 rpm for 90 min. […]
The immunofluorescence assay for the quantification of MDR markers was optimized to distinguish cancer cells from stromal cells using a cytokeratin 8/18 (CK8/18) antibody cocktail. […]

[4] = test system: MRC-5 cells; experiment: Cytotoxicity by immunofluorescence cell scoring (cell counts), normal fibroblasts; details: 24 h treatment
Description: as §4
The compounds were administered 48 h after seeding. The treatment lasted 24 h.
as §6
The fluorescently labeled cells were imaged using the ImageXpress Pico Automated Cell Imaging System (Molecular Devices, San Jose, CA, USA) with a 4x objective after determining the appropriate exposure time for each illumination filter. Analysis of the obtained images was performed using CellReporterXpress software v. 2.8.2.669 (Molecular Devices). The cytotoxicity of the compounds was determined using the Cell Scoring Analysis Protocol. […] Expression of MDR markers was determined using the Multi-Wavelength Cell Scoring Analysis Protocol.

[5] = test system: ABCC1 expression in non-cancer cells (CK8/18-); experiment: Immunofluorescence assay of ABCC1 expression in patient-derived NSCLC cultures, non-cancer cells; details: sample TR58, chemotherapeutics, 7 days
Description: as §1, §2, §3, §4, §5, §6

[6] = culture TR58, cancer cells (CK8/18+)
[7] = culture TR64, cancer cells (CK8/18+)
[8] = culture TR65, cancer cells (CK8/18+)
[9] = culture TR84, cancer cells (CK8/18+)
[10] = culture TR87, cancer cells (CK8/18+)
[11] = Homo sapiens, MRC5, 24 h, MRC-5 (co-culture with NCI-H460)
[12] = Homo sapiens, MRC5, 24 h, MRC-5 (co-culture with NCI-H460/R)
[13] = Homo sapiens, MRC5, 24 h, MRC-5 monoculture

SMILES	ABCC1 expression [1, 6]	ABCC1 expression [1, 7]	ABCC1 expression [1, 8]	ABCC1 expression [1, 9]	ABCC1 expression [1, 10]	ABCB1 Expression [2, 6]	ABCB1 Expression [2, 7]	ABCB1 Expression [2, 8]	ABCB1 Expression [2, 9]	ABCB1 Expression [2, 10]	ABCG2 expression in CK8/18− cells ([3]; sample TR58, chemotherapeutics)	IC50 ([4]; MRC-5 (co-culture with NCI-H460)) [µM]	IC50 ([4]; MRC-5 (co-culture with NCI-H460/R)) [µM]	IC50 ([4]; MRC-5 monoculture) [µM]	ABCC1 expression in CK8/18− cells [5]	ABCG2 expression in CK8/18− cells ([3]; sample TR65, chemotherapeutics)	IC50 [4, 11] [µM]	IC50 [4, 12] [µM]	IC50 [4, 13] [µM]
N.N.[Cl][Pt][Cl] [Cisplatin, cisplatin]	no change	increase (An increase in ABCB1, ABCC1, or ABCG2 expression of at least 20% at a minimum of one concentration is shown in the table.)	increase (An increase in ABCB1, ABCC1, or ABCG2 expression of at least 20% at a minimum of one concentration is shown in the table.)	increase (An increase in ABCB1, ABCC1, or ABCG2 expression of at least 20% at a minimum of one concentration is shown in the table.)	increase (An increase in ABCB1, ABCC1, or ABCG2 expression of at least 20% at a minimum of one concentration is shown in the table.)	no change	increase (An increase in ABCB1, ABCC1, or ABCG2 expression of at least 20% at a minimum of one concentration is shown in the table.)	increase (An increase in ABCB1, ABCC1, or ABCG2 expression of at least 20% at a minimum of one concentration is shown in the table.)	increase (An increase in ABCB1, ABCC1, or ABCG2 expression of at least 20% at a minimum of one concentration is shown in the table.)	increase (An increase in ABCB1, ABCC1, or ABCG2 expression of at least 20% at a minimum of one concentration is shown in the table.)	increased	> 15	> 15	14.7	–	–	–	–	–
Nc1ccn([C@@H]2O[C@H](CO)[C@@H](O)C2(F)F)c(=O)n1 [Gemcitabine, gemcitabine]	no change	increase (An increase in ABCB1, ABCC1, or ABCG2 expression of at least 20% at a minimum of one concentration is shown in the table.)	increase (An increase in ABCB1, ABCC1, or ABCG2 expression of at least 20% at a minimum of one concentration is shown in the table.)	increase (An increase in ABCB1, ABCC1, or ABCG2 expression of at least 20% at a minimum of one concentration is shown in the table.)	increase (An increase in ABCB1, ABCC1, or ABCG2 expression of at least 20% at a minimum of one concentration is shown in the table.)	no change	increase (An increase in ABCB1, ABCC1, or ABCG2 expression of at least 20% at a minimum of one concentration is shown in the table.)	increase (An increase in ABCB1, ABCC1, or ABCG2 expression of at least 20% at a minimum of one concentration is shown in the table.)	increase (An increase in ABCB1, ABCC1, or ABCG2 expression of at least 20% at a minimum of one concentration is shown in the table.)	increase (An increase in ABCB1, ABCC1, or ABCG2 expression of at least 20% at a minimum of one concentration is shown in the table.)	–	–	–	–	elevated	elevated	> 100	> 100	> 100
CC(=O)O[C@H]1C(=O)[C@@]2(C)[C@H]([C@H](OC(=O)c3ccccc3)[C@]3(O)C[C@H](OC(=O)[C@H](O)[C@@H](NC(=O)c4ccccc4)c4ccccc4)C(C)=C1C3(C)C)[C@]1(OC(C)=O)CO[C@@H]1C[C@@H]2O [Paclitaxel, paclitaxel]	no change	increase (An increase in ABCB1, ABCC1, or ABCG2 expression of at least 20% at a minimum of one concentration is shown in the table.)	increase (An increase in ABCB1, ABCC1, or ABCG2 expression of at least 20% at a minimum of one concentration is shown in the table.)	increase (An increase in ABCB1, ABCC1, or ABCG2 expression of at least 20% at a minimum of one concentration is shown in the table.)	increase (An increase in ABCB1, ABCC1, or ABCG2 expression of at least 20% at a minimum of one concentration is shown in the table.)	increase (An increase in ABCB1, ABCC1, or ABCG2 expression of at least 20% at a minimum of one concentration is shown in the table.)	increase (An increase in ABCB1, ABCC1, or ABCG2 expression of at least 20% at a minimum of one concentration is shown in the table.)	increase (An increase in ABCB1, ABCC1, or ABCG2 expression of at least 20% at a minimum of one concentration is shown in the table.)	increase (An increase in ABCB1, ABCC1, or ABCG2 expression of at least 20% at a minimum of one concentration is shown in the table.)	increase (An increase in ABCB1, ABCC1, or ABCG2 expression of at least 20% at a minimum of one concentration is shown in the table.)	–	–	–	–	elevated	–	> 5	> 5	> 5

Reference: PMC10743086, “Immunofluorescence-Based Assay for High-Throughput Analysis of Multidrug Resistance Markers in Non-Small Cell Lung Carcinoma Patient-Derived Cells” (Diagnostics, 2023)
